From patent publication US12016864B2, “LOX enzyme inhibiting methods and compositions” (ANOVIA BIOSCIENCES, INC., priority 2021, dated 2024) come the findings set out here.

SMILES strings stand for the structures.

For assay [1], the target named is T1, Recombinant human LOXL2 (lysyl oxidase like 2) (Homo sapiens, UniProt Q9Y4K0).
T1 construct: purchased R&D systems
T1 sequence (Q9Y4K0 26-774): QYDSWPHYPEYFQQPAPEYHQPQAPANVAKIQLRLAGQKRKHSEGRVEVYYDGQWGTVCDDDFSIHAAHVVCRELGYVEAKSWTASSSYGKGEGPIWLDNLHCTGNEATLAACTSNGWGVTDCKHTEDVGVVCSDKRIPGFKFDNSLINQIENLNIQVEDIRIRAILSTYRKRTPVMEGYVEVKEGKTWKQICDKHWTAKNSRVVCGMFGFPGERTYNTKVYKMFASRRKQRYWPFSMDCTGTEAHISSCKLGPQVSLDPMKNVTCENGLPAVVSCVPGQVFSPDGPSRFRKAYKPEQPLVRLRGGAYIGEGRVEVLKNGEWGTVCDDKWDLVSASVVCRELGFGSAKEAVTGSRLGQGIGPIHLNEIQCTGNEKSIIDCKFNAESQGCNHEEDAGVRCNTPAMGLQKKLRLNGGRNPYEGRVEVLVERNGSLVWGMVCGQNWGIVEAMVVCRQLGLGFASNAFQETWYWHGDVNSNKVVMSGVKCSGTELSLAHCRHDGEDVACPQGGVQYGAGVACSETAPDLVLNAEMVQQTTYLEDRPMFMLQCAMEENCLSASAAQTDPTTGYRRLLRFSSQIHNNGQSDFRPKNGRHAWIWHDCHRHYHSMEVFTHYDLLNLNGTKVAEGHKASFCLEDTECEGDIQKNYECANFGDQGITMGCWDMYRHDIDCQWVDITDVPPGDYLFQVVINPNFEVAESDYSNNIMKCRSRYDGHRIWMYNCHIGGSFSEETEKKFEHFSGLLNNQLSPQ
The assay can be described thus: LOXL2 inhibition assay, fluorometric (cadaverine / HRP / Amplex Red). Format: biochemical. Conditions: recombinant human LOXL2 130 nM; 30 min preincubation at 37° C.; 2.5 mM cadaverine; read-out: Activity Range LOXL2. In short, it runs like this: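 Recombinant human LOXL2 or LOXL3 in 1.2 M urea, 50 mM sodium borate pH 8.0, 10 mM CaCl, preincubated with compound 30 min at 37 °C. Cadaverine substrate added; H2O2 detected by HRP/Amplex Red fluorescence, read kinetically for 60 min at 37 °C. Initial-rate slopes, background-subtracted and normalised to DMSO, fitted to a 4-parameter curve with bottom fixed at 0.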

For assay [2], the target named is T2, Recombinant human LOXL3 (lysyl oxidase like 3) (Homo sapiens, UniProt P58215).
T2 construct: purchased R&D systems
T2 sequence (P58215 26-753): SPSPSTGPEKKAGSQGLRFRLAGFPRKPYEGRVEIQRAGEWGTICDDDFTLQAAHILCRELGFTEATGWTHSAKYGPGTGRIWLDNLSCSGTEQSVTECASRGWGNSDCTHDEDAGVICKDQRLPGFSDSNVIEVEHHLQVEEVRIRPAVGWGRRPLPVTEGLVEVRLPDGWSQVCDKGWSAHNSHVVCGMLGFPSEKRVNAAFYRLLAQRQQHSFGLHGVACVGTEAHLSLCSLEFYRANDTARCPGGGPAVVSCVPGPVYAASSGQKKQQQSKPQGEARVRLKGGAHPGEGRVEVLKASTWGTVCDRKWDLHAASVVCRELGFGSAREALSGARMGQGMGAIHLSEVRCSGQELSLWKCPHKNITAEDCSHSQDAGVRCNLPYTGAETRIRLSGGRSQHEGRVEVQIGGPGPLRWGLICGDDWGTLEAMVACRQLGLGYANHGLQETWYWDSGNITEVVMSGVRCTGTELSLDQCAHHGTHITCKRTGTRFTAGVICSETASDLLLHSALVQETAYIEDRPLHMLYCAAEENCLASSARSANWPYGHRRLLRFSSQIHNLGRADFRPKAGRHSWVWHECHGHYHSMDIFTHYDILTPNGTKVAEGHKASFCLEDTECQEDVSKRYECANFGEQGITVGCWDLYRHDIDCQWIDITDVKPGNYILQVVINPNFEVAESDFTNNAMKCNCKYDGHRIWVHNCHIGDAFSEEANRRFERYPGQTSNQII
The assay can be described thus: LOXL3 inhibition assay, fluorometric (cadaverine / HRP / Amplex Red). The settings on record: recombinant human LOXL3 150 nM; 30 min preincubation at 37° C.; 1 mM cadaverine; read-out: Activity Range LOXL3. Format: biochemical. The procedure:
The ability of compounds to inhibit one or more of the lysyl oxidases LOXL2 and/or LOXL3 was determined using a fluorometric assay. This assay measures the activity of lysyl oxidases by coupling the reaction with horseradish peroxidase-catalyzed […]. The activity assay protocol uses cadaverine as substrate that releases hydrogen peroxide upon transformation by the specific LOX family enzyme present in the sample. Hydrogen peroxide is in turn detected using a red fluorescence substrate for HRP-coupled reactions (Amplex Red Enzyme Assays, Thermo Scientific Fisher). This leads to increase in fluorescence that can be easily detected at Ex/Em=540/590 nm in a fluorescence microplate reader.
Recombinant human LOXL2 (lysyl oxidase like 2) and recombinant human LOXL3 (lysyl oxidase like 3) were purchased from R&D systems and assays were performed in 1.2 M urea, 50 mM sodium borate buffer pH 8.0, and 10 mM CaCl.
5 μl of freshly prepared reaction buffer were delivered to reaction wells. Compounds were resuspended in 100% DMSO at 10 mM and delivered into buffer using acoustic technology (Echo550; nanoliter range). A 3× solution of LOXL2 or LOXL3 in reaction buffer was prepared (“enzyme solution”) and 5 μL of enzyme solution was added into the reaction wells. Buffer only was added to column 1 for no protein control. Reactions were incubated for 30 minutes at 37° C. A 3× mixture of cadaverine, Amplex Red, and HRP (“Substrate/Detection Mix) was prepared and subsequently 5 μL of the mixture added to each reaction well. Progress of reactions was monitored for 60 minutes at 37° C. using Clariostar plate reader (ex 530-12, ems 600-40). For all activity assays, pan-LOX inhibitor CCT365623 (Tang et al, 2017) and LOXL2/LOXL3 inhibitor PAT-1251 (PharmaKea) were included as standards.
For the data analysis, the slope of the linear portion of the progress curve was calculated using Clariostar software. Typical analysis interval was between 8-30 min, but varied between experiments. The background-subtracted signals (No protein wells are considered as background) were converted to % activity relative to DMSO controls. Data was analyzed using GraphPad Prism 4 with “sigmoidal dose-response (variable slope)”; 4 parameters with Hill Slope. Constraints: Bottom=Constant equal to 0. Top=Must be less than 120.

For `NCc1ccnc(S(=O)(=O)C[C@@H]2C[C@H](c3ccccc3)CN2S(=O)(=O)N2CCS(=O)(=O)CC2)c1` [Example 196A, 4-(((2S,4R)-2-(((4-(aminomethyl)pyridin-2-yl)sulfonyl)methyl)-4-phenylpyrrolidin-1-yl)sulfonyl)thiomorpholine 1,1-dioxide 2,2,2-trifluoroacetate], the IC50 in assay [1] and in assay [2] was ≤ 500 nM in each case.

In the case of `NCc1ccnc(S(=O)(=O)C[C@H]2C[C@@H](c3ccccc3)CN2S(=O)(=O)N2CCS(=O)(=O)CC2)c1` [Example 196B, 4-(((2R,4S)-2-(((4-(aminomethyl)pyridin-2-yl)sulfonyl)methyl)-4-phenylpyrrolidin-1-yl)sulfonyl)thiomorpholine 1,1-dioxide 2,2,2-trifluoroacetate], the IC50 in assay [1] and in assay [2] was ≤ 500 nM in each case.

In the case of `NCc1ccnc(S(=O)(=O)C[C@@H]2C[C@H](c3ccccc3)CN2S(=O)(=O)N2CCS(=O)(=O)CC2)c1` (racemic) [Example 196, cis-4-((2-(((4-(Aminomethyl)pyridin-2-yl)sulfonyl)methyl)-4-phenylpyrrolidin-1-yl)sulfonyl)thiomorpholine 1,1-dioxide 2,2,2-trifluoroacetate], the IC50 in assay [1] and in assay [2] was ≤ 500 nM in each case.

As for `NCc1ccnc(S(=O)(=O)C[C@@H]2C[C@H](c3ccccc3)CN2S(=O)(=O)N2CCOCC2)c1` (single isomer, unassigned) [Example 195B], the IC50 in assay [1] and in assay [2] was ≤ 500 nM in each case.

Take `NCc1ccnc(S(=O)(=O)C[C@@H]2C[C@H](c3ccccc3)CN2S(=O)(=O)N2CCOCC2)c1` (racemic) [Example 195, Cis-(2-(((1-(Morpholinosulfonyl)-4-phenylpyrrolidin-2-yl)methyl)sulfonyl)pyridin-4-yl)methanamine 2,2,2-trifluoroacetate]: the IC50 in assay [1] and in assay [2] was ≤ 500 nM each time.

With `NCc1ccnc(S(=O)(=O)C[C@H]2C[C@@H](c3ccccc3)CN2S(=O)(=O)N2CCOCC2)c1` (single isomer, unassigned) [Example 195A], the IC50 in assay [1] and in assay [2] was ≤ 500 nM each time.
